Experimental findings from US20240360148A1 (SUVALENT THERAPEUTICS, INC., priority 2021, published 2024) are described below.

For one experiment, the target named is SAE1 (Homo sapiens (Human), UniProt Q9UBE0+Q9UBT2). Put plainly: SAE High Throughput Biochemical Assay (HTRF), 15 min preincubation. The note with it: read-out: 15 min preincubation HTRF IC50 (μM) Ave, SAE1 12.5 nM, ATP 100 μM. In a few lines:
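HTRF detection of SUMO transfer from SUMO-GST to UBC9-His (40 nM each) by SAE1 at 12.5 nM used 100 μM ATP in pH 7.5 HEPES buffer with 10 mM MgCl2 and 0.1% BSA. Enzyme and compound were preincubated 15 min at RT and the reaction ran 45 min, with readings after 2 h and overnight.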

The subject of experiment [1] is sumoylation levels (SUMO 2/3 conjugates) in HCT-116 cells. Put plainly: HCT-116 4 Hour Cell Assay (Western, SUMO 2/3 conjugates). The note with it: Homo sapiens, HCT-116, 4 h, 4 h treatment, Anti-Sumo 2-3 immunoblot, read-out: HCT-116 Western 4 h IC50 (μM) Ave. Format: cell-based. How it is done:
This protocol describes the procedures used to assess the effects of compounds of interest on sumoylation levels. Immunoblot of SUMO 2/3 conjugates are performed and IC50 curves are generated upon quantification of sumoylations bands. HCT-116 cells are seeded in a 12 well plate (500,000 cells/well). The following day the cells are treated with compounds of interest (resuspended in DMSO) for 4 hours (11 concentrations with a three-fold dilution; starting concentration 25 μM) Following 4 hours of incubation the cells are washed with ice cold PBS 1×and protein extraction is performed with RIPA buffer supplemented with phosphatases and proteases inhibitors, 25 mM of NEM and 50 units/mL of Benzonase. Samples undergo centrifugation at 13,000 RPM, 4° C., for 10 minutes and the supernatant is collected. Protein quantification is performed using BCA. Non-Reducing Laemmli Buffer is added to the samples. Samples are heated at 75° C. for 10 minutes, and are centrifuged for 3 minutes at 9000 RPM Nupage 4-12% Bis Tris gels and 1× MOPS buffer (Fisher Scientific)+1× NuPAGE Antioxidant (Invitrogen) are used to perform the SDS-PAGE gel electrophoresis (20 to 40 μg of proteins are loaded in the gels). Proteins are then transferred to PVDF membranes and the level of total proteins are measured by staining with Revert Total Protein Stain and the fluorescent bands are acquired using the LI-COR FC (700 nm for 1 min) Membranes are blocked for 5 minutes with Bio-Rad Blocking Buffer and are subsequently incubated over night at 4° C. with Anti-Sumo 2-3 mAb (M BL #M114-3, 1:1000 in Bio-Rad Blocking Buffer, 0.2% Tween 20) Membranes are washed with 1×TBS-T (3 times for 5 minutes) and sumoylation is detected using Li-cor IRDye 800CW Goat anti-Mouse IgG secondary antibody (1:10,000 dilution) upon 1 hour of incubation in blocking buffer with 0.2% Tween 20 and 0.01% SDS. After the incubation, the membranes are washed with 1×TBS-T (3 times for 5 minutes). To visualize the fluorescent bands the membranes are scanned with LI-COR FC (700 nm for 1 min and […] for 2 mins). Sumoylation levels are quantified upon normalization with total protein levels, using the LI-COR Image Studio Lite 5.2 Software.
For orientation: A western blot detects proteins with antibodies after separation by electrophoresis.

The IC50 is the concentration that inhibits the measured activity by half.

Chain of SAE1 (Q9UBE0 whole entry): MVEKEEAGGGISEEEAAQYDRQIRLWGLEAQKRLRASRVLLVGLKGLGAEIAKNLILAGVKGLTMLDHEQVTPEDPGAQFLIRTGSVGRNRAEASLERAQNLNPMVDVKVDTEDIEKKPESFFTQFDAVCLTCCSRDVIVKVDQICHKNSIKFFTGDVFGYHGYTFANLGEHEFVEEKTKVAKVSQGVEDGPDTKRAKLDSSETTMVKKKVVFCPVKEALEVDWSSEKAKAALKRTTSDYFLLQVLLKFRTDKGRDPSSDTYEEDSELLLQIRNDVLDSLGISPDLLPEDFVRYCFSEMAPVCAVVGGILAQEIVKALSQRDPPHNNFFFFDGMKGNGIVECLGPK
Chain of SAE1 (Q9UBT2 whole entry): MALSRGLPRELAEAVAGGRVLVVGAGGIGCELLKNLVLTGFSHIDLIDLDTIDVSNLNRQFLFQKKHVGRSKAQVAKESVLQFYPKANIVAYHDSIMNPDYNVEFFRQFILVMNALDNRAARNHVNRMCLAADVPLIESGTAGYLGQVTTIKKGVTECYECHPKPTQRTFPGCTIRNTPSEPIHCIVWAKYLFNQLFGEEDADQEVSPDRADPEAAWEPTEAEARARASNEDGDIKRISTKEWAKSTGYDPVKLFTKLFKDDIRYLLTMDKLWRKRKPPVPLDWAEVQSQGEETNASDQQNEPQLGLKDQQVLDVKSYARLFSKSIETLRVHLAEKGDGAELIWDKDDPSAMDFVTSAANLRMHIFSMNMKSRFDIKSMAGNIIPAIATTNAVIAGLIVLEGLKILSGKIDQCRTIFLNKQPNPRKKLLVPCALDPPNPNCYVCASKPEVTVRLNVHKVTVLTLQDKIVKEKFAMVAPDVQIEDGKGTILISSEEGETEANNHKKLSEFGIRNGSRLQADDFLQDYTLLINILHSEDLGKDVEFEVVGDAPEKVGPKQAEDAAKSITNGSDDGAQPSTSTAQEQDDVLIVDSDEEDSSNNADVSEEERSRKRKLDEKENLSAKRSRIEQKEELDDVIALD

Regarding `CCn1cc(-c2ccccc2[C@@H]2CN(C(=O)/C=C/CN(C)C)Cc3sc(C#N)c(Cl)c32)c(C(F)(F)F)n1` [Compound 247], the IC50 on SAE1 worked out at 1.66 µM; in experiment [1], 0.2 µM.
In the case of `CN(C)C/C=C/C(=O)N1Cc2sc(C#N)cc2[C@H](c2ccccc2-c2cn(C)nc2C(F)(F)F)C1` [Example 3, (S, E)-6-(4-(Dimethylamino)but-2-enoyl)-4-(2-(1-methyl-3-(trifluoromethyl)-1 H-pyrazol-4-yl)phenyl)-4,5,6,7-tetrahydrothieno[2,3-c]pyridine-2-carbonitrile], the 50% inhibitory concentration (IC50) on SAE1 came out at 7.87 µM; in experiment [1], 0.985 µM.
Take `CCn1cc(-c2ccccc2[C@@H]2CN(C(=O)/C=C/CN3CCC(C(=O)O)C3)Cc3sc(C#N)cc32)c(C(F)(F)F)n1` (stereo partly drawn) [Example 5, 1-((E)-4-((S)-2-Cyano-4-(2-(1-ethyl-3-(trifluoromethyl)-1 H-pyrazol-4-yl)phenyl)-4,7-dihydrothieno[2,3-c]pyridin-6(5H)-yl)-4-oxobut-2-en-1-yl)pyrrolidine-3-carboxylic acid]: the IC50 on SAE1 is 10.3 µM; in experiment [1], 14.1 µM.
In the case of `CN(C)C/C=C/C(=O)N1Cc2sc(C#N)cc2[C@H](c2ccccc2-c2cn(CCF)nc2C(F)(F)F)C1` [Example 17, (S,E)-6-(4-(dimethylamino)but-2-enoyl)-4-(2-(1-(2-fluoroethyl)-3-(trifluoromethyl)-1 H-pyrazol-4-yl)phenyl)-4,5,6,7-tetrahydrothieno[2,3-c]pyridine-2-carbonitrile], the half-maximal inhibitory concentration (IC50) on SAE1 stood at 2.47 µM; in experiment [1], 0.269 µM.
Taken in the same sequence, the figures for `CCn1cc(-c2ccccc2[C@@H]2CN(C(=O)/C=C/CF)Cc3sc(C#N)cc32)c(C(F)(F)F)n1` [Example 20, (S, E)-4-(2-(1-ethyl-3-(trifluoromethyl)-1 H-pyrazol-4-yl)phenyl)-6-(4-fluorobut-2-enoyl)-4,5,6,7-tetrahydrothieno[2,3-c]pyridine-2-carbonitrile] were 0.69 µM and 0.692 µM.
Take `CCN(CC)C/C=C/C(=O)N1Cc2sc(C#N)cc2[C@H](c2ccccc2-c2cn(CC)nc2C(F)(F)F)C1` [Example 28, (S, E)-6-(4-(Diethylamino)but-2-enoyl)-4-(2-(1-ethyl-3-(trifluoromethyl)-1 H-pyrazol-4-yl)phenyl)-4,5,6,7-tetrahydrothieno[2,3-c]pyridine-2-carbonitrile]: the IC50 at SAE1 turned out to be 8.43 µM; in experiment [1] it was 0.331 µM.
In the case of `CCn1cc(-c2ccccc2[C@@H]2CN(C(=O)/C=C/CN3CCCC3)Cc3sc(C#N)cc32)c(C(F)(F)F)n1` [Example 30, (S, E)-4-(2-(1-ethyl-3-(trifluoromethyl)-1 H-pyrazol-4-yl)phenyl)-6-(4-(pyrrolidin-1-yl)but-2-enoyl)-4,5,6,7-tetrahydrothieno[2,3-c]pyridine-2-carbonitrile], the results for the IC50 (at SAE1; in experiment [1]) were 3.3 µM and 0.746 µM, respectively.
With `CCn1cc(-c2ccccc2[C@@H]2CN(C(=O)/C=C/CN3CCCC3C)Cc3sc(C#N)cc32)c(C(F)(F)F)n1` (stereo partly drawn) [Example 31, (4S)-4-(2-(1-ethyl-3-(trifluoromethyl)-1 H-pyrazol-4-yl)phenyl)-6-((E)-4-(2-methylpyrrolidin-1-yl)but-2-enoyl)-4,5,6,7-tetrahydrothieno[2,3-c]pyridine-2-carbonitrile], the IC50 at SAE1 was 10.2 µM; in experiment [1], 0.918 µM.
For `CCn1cc(-c2ccccc2[C@@H]2CN(C(=O)/C=C/CN3CCC(C)C3)Cc3sc(C#N)cc32)c(C(F)(F)F)n1` (some centres unmarked) [Example 32], the figures for the IC50 (at SAE1; in experiment [1]) were 3.9 µM and 2.05 µM, respectively.
As to `CCn1cc(-c2c(F)cccc2[C@@H]2CN(C(=O)/C=C/CN)Cc3sc(C#N)cc32)c(C(F)(F)F)n1` [Example 51, (S)-6-((E)-4-aminobut-2-enoyl)-4-((S)-2-(1-ethyl-3-(trifluoromethyl)-1 H-pyrazol-4-yl)-3-fluorophenyl)-4,5,6,7-tetrahydrothieno[2,3-c]pyridine-2-carbonitrile], the IC50 is 1.29 µM on SAE1 and 0.569 µM in experiment [1].
Taken in the same sequence, the figures for `[2H]C(C)(C)NC/C=C/C(=O)N1Cc2sc(C#N)cc2[C@H](c2cccc(F)c2-c2cn(CC)nc2C(F)(F)F)C1` [Example 52, (S, E)-4-(2-(1-ethyl-3-(trifluoromethyl)-1 H-pyrazol-4-yl)-3-fluorophenyl)-6-(4-((propan-2-yl-2-d)amino)but-2-enoyl)-4,5,6,7-tetrahydrothieno[2,3-c]pyridine-2-carbonitrile] were 0.69 µM and 0.308 µM.
With `CCn1cc(-c2c(F)cccc2[C@@H]2CN(C(=O)/C=C/[C@@H]3CCN3)Cc3sc(C#N)cc32)c(C(F)(F)F)n1` [Example 53, (S)-6-((E)-3-((S)-azetidin-2-yl)acryloyl)-4-((S)-2-(1-ethyl-3-(trifluoromethyl)-1 H-pyrazol-4-yl)-3-fluorophenyl)-4,5,6,7-tetrahydrothieno[2,3-c]pyridine-2-carbonitrile], the IC50 at SAE1 worked out at 0.34 µM; in experiment [1] it was 0.191 µM.
As for `CCn1cc(-c2c(F)cccc2[C@@H]2CN(C(=O)/C=C/[C@H]3CCN3)Cc3sc(C#N)cc32)c(C(F)(F)F)n1` [Example 54, (S)-6-((E)-3-((R)-azetidin-2-yl)acryloyl)-4-((S)-2-(1-ethyl-3-(trifluoromethyl)-1 H-pyrazol-4-yl)-3-fluorophenyl)-4,5,6,7-tetrahydrothieno[2,3-c]pyridine-2-carbonitrile], the IC50 is 0.55 µM on SAE1 and 0.57 µM in experiment [1].
Taken in the same sequence, the figures for `C=C(C(=O)N1Cc2sc(C#N)cc2[C@H](c2ccccc2-c2cn(CC)nc2C(F)(F)F)C1)C(F)(F)F` [Example 60, (S)-4-(2-(1-Ethyl-3-(trifluoromethyl)-1 H pyrazol-4-yl)phenyl)-6-(2-(trifluoromethyl)acryloyl)-4,5,6,7-tetrahydrothieno[2,3-c]pyridine-2-carbonitrile] were 1.36 µM and 2.59 µM.
As to `CCn1cc(-c2ccccc2[C@@H]2CN(C(=O)/C=C/[C@@H](N)CO)Cc3sc(C#N)cc32)c(C(F)(F)F)n1` [Example 74, (S)-6-((R, E)-4-Amino-5-hydroxypent-2-enoyl)-4-(2-(1-ethyl-3-(trifluoromethyl)-1 H-pyrazol-4-yl)phenyl)-4,5,6,7-tetrahydrothieno[2,3-c]pyridine-2-carbonitrile], the IC50 at SAE1 was determined as 2.84 µM; in experiment [1] it was 2.24 µM.
In the case of `CCn1cc(-c2ccccc2[C@@H]2CN(C(=O)/C=C/[C@@H]3CCC(C)(C)N3)Cc3sc(C#N)cc32)c(C(F)(F)F)n1` [Example 79, (S)-6-((E)-3-((S)-5,5-Dimethylpyrrolidin-2-yl)acryloyl)-4-(2-(1-ethyl-3-(trifluoromethyl)-1H pyrazol-4-yl)phenyl)-4,5,6,7-tetrahydrothieno[2,3-c]pyridine-2-carbonitrile], the IC50 on SAE1 amounted to 1.77 µM; in experiment [1], 0.324 µM.
Consider `CCn1cc(-c2ccccc2[C@@H]2CN(C(=O)/C=C/[C@@H]3C[C@H](C)CN3)Cc3sc(C#N)cc32)c(C(F)(F)F)n1` [Example 80, (S)-4-(2-(1-Ethyl-3-(trifluoromethyl)-1H pyrazol-4-yl)phenyl)-6-((E)-3-((2S,4S)-4-methylpyrrolidin-2-yl)acryloyl)-4,5,6,7-tetrahydrothieno[2,3-c]pyridine-2-carbonitrile], for which the IC50 was found to be 1.24 µM at SAE1 and 0.212 µM in experiment [1].
As for `CCn1cc(-c2ccccc2[C@@H]2CN(C(=O)/C=C/[C@H]3C[C@@H](C)CN3)Cc3sc(C#N)cc32)c(C(F)(F)F)n1` [Example 81, (S)-4-(2-(1-Ethyl-3-(trifluoromethyl)-1 H-pyrazol-4-yl)phenyl)-6-((E)-3-((2R, 4R)-4-methylpyrrolidin-2-yl)acryloyl)-4,5,6,7-tetrahydrothieno[2,3-c]pyridine-2-carbonitrile], the IC50 at SAE1 came to 2.69 µM; in experiment [1], 0.35 µM.
Turning to `CCn1cc(-c2ccccc2[C@@H]2CN(C(=O)/C=C/[C@H]3CC(C)(C)CN3)Cc3sc(C#N)cc32)c(C(F)(F)F)n1` [Example 82, (S)-6-((E)-3-((R)-4,4-Dimethylpyrrolidin-2-yl)acryloyl)-4-(2-(1-ethyl-3-(trifluoromethyl)-1H pyrazol-4-yl)phenyl)-4,5,6,7-tetrahydrothieno[2,3-c]pyridine-2-carbonitrile], the IC50 on SAE1 stood at 1.08 µM; in experiment [1], 0.357 µM.
